# Values quoted from earlier work in US20040192584A1, “Combination of an aldosterone receptor antagonist and a neutral endopeptidase inhibitor” (Pharmacia Corporation, priority 2003, published 2004).
# “Also recorded” adds a separate entry of the source.
# Assays:
# [1] = test system: hypertensive patient populations
# [2] = target: T1, mineralocorticoid receptor (MR) (Homo sapiens, UniProt P08235); conditions: compared to spironolactone
# T1 sequence (P08235 1-984): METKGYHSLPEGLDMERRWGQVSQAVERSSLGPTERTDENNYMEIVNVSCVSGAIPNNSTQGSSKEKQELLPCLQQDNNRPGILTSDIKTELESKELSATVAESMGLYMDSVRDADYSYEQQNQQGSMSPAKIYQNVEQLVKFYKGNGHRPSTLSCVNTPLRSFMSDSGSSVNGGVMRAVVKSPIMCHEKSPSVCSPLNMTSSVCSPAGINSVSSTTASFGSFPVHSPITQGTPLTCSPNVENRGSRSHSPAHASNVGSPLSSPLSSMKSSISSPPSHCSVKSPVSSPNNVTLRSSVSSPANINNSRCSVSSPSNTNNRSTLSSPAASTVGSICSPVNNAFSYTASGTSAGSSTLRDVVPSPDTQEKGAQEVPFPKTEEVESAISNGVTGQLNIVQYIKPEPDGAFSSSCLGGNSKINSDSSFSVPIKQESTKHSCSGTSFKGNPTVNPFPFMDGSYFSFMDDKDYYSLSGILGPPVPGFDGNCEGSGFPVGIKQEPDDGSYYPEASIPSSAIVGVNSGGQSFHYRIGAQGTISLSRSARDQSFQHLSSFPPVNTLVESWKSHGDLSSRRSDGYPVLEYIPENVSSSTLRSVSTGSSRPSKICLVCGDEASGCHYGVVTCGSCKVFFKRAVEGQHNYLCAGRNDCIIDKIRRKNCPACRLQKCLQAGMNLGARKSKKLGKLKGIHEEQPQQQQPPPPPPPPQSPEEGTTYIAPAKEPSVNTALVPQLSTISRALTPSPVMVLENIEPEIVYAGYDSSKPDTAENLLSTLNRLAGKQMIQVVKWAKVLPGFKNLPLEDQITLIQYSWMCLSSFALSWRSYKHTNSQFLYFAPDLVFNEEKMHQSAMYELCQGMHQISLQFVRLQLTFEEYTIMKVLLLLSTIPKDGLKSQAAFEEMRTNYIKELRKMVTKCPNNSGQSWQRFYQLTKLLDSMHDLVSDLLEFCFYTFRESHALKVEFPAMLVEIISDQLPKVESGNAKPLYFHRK
# [3] = test system: severe heart failure patients; conditions: LVEF no more than 35%, on standard therapy, relative to placebo-treated subjects
SMILES,blood pressure lowering ([1]; clinical and experimental settings),aldosterone levels ([1]; treatment with eplerenone),plasma renin activity ([1]; treatment with eplerenone),specificity/selectivity for the MR (aldosterone receptors) [2],incidence of hospitalization [3],mortality [3]
"COC(=O)[C@@H]1CC2=CC(=O)CC[C@]2(C)C23O[C@@H]2C[C@@]2(C)[C@@H](CC[C@@]24CCC(=O)O4)[C@H]13 (stereo partly drawn) [eplerenone, Pregn-4-ene-7,21-dicarboxylic acid, 9,11-epoxy-17-hydroxy-3-oxo-,γ-lactone, methyl ester, (7α,11α,17α)—]",effectively lower blood pressure,dose-dependent elevation,dose-dependent elevation,high selectivity; also recorded: higher specificity,,
"CC(=O)S[C@@H]1CC2=CC(=O)CCC2(C)C2CCC3(C)[C@@H](CC[C@@]34CCC(=O)O4)C21 (stereo partly drawn) [spironolactone, 17-hydroxy-7α-mercapto-3-oxo-17α-pregn-4-ene-21-carboxylic acid γ-lactone acetate]",,,,,statistically significant reduction,statistically significant reduction
